≈ marks a conversion by molar mass, not a printed value. Like-named read-outs stand apart in the source and are kept apart here.
Assays:
[1] = test system: P. aeruginosa ATCC 27853; test: Broth microdilution MIC in CAMHB; type: cell-based; details: Pseudomonas aeruginosa, ATCC27853; MHB; read-out: Minimum Inhibitory Concentration, P. aeruginosa ATCC 27853
Experimental: (§1) Example III: In Vitro Antibacterial Assays
(§2) To determine the ability of test compounds to inhibit the growth of bacterial strains, classic cell based broth microdilution minimum inhibitory concentration (MIC) assays were employed. MIC assays are performed according to CLSI methods except where otherwise noted (CLSI, 2018 and CLSI, 2019). The reference type strain E. coli ATCC 25922; the wild-type parent strain E. coli AG100; the hyper-permeable E. coli 901C and E. coli D22; and the E. coli AG100A strain lacking the acrAB efflux pump encoding genes were used to determine the ability of the PBP inhibitors to penetrate the outer membrane of gram-negative bacteria and inhibit bacterial growth. […] The P. aeruginosa ATCC 27853 and A. baumannii ATCC 19606, along with the hyper-permeable P. aeruginosa ATCC 35151 and an engineered efflux pump-compromised strain of P. aeruginosa (ΔmexAB-oprM) were used to determine the ability of PBP inhibitors to penetrate the outer membrane of P. aeruginosa and A. baumannii and assess antibacterial activity against these important gram-negative organisms.
(§3) Briefly, cryo-preserved bacterial cultures of challenge strains are streaked for isolation on appropriate agar medium, in this case cation-adjusted Mueller Hinton agar. Following incubation to allow growth of the colonies, plates are sealed with parafilm and stored refrigerated for up to two weeks. For preparation of assay inoculum and to ensure low variability, at least 5 colonies are picked from the agar plates with an inoculating loop and aseptically transferred to a culture tube containing 3 mL of cation-adjusted Mueller Hinton broth (CAMHB). The broth culture is grown for 3-5 hours at 37° C. with shaking at 200 rpm. Meanwhile, 2-fold serial dilutions of test compounds are conducted in a 96-well plate with a final volume of 75 μL per well at 2-fold the final desired concentration. After the dilution plates are set up the growing cultures are then diluted in a cuvette containing CAMHB and the optical density is measured at 600 nm. The inoculum is diluted such that 75 μL of this culture in CAMHB results in a starting bacterial concentration of 2-8×10^5 CFU/mL when added to the dilution plates. The plates are incubated for 16-20 hours for Enterobacteriaceae and Pseudomonas and 20-24 hours for Acinetobacter at 37° C. The MIC values are read visually as the lowest concentration well with no bacterial growth.

[2] = test system: K. pneumoniae SI-117 producing VIM-1; test: Broth microdilution MIC in CAMHB; type: cell-based; details: Klebsiella pneumoniae, read-out: Minimum Inhibitory Concentration, K. pneumoniae SI-117
Experimental: as §1, §2, §3

[3] = test system: P. aeruginosa (ΔmexAB-oprM); test: Broth microdilution MIC in CAMHB; type: cell-based; details: Pseudomonas aeruginosa, read-out: Minimum Inhibitory Concentration, P. aeruginosa ΔmexAB-OprM
Experimental: as §1, §2, §3

[4] = test system: E. coli 901C; test: Broth microdilution MIC in CAMHB; type: cell-based; details: Escherichia coli, MHB, read-out: Minimum Inhibitory Concentration, E. coli 901C
Experimental: as §1, §2, §3

[5] = test system: E. coli ATCC 25922; test: Broth microdilution MIC in CAMHB; type: cell-based
Experimental: as §1, §2, §3

[6] = test system: P. aeruginosa ATCC 35151; test: Broth microdilution MIC in CAMHB; type: cell-based; details: Pseudomonas aeruginosa, ATCC35151; MHB; hyper-permeable strain; read-out: Minimum Inhibitory Concentration, P. aeruginosa ATCC 35151
Experimental: as §1, §2, §3

[7] = test system: A. baumannii ATCC 19606; test: Broth microdilution MIC in CAMHB; type: cell-based; details: Acinetobacter baumannii, ATCC19606; MHB; read-out: Minimum Inhibitory Concentration, A. baumannii ATCC 19606
Experimental: as §1, §2, §3

[8] = test system: E. coli AG100A; test: Broth microdilution MIC in CAMHB; type: cell-based; details: Escherichia coli, read-out: Minimum Inhibitory Concentration, E. coli AG100A
Experimental: as §1, §2, §3

[9] = test system: K. pneumoniae UMM producing SHV-5 and KPC-2; test: Broth microdilution MIC in CAMHB; type: cell-based; details: Klebsiella pneumoniae, read-out: Minimum Inhibitory Concentration, K. pneumoniae UMM
Experimental: as §1, §2, §3

[10] = test system: E. coli D22; test: Broth microdilution MIC in CAMHB; type: cell-based; details: Escherichia coli, MHB, read-out: Minimum Inhibitory Concentration, E. coli D22
Experimental: as §1, §2, §3

[11] = test system: E. coli AG100; test: Broth microdilution MIC in CAMHB; type: cell-based; details: Escherichia coli, MHB, read-out: Minimum Inhibitory Concentration, E. coli AG100
Experimental: as §1, §2, §3

[12] = test system: K. pneumoniae 848844 producing SHV-11 and KPC-2; test: Broth microdilution MIC in CAMHB; type: cell-based; details: Klebsiella pneumoniae, read-out: Minimum Inhibitory Concentration, K. pneumoniae 848844
Experimental: as §1, §2, §3

[13] = biological target: T1, E. coli K12 PBP3 (Escherichia coli, UniProt P0AD68); test: biochemical; type: binding
T1 construct: made in house
T1 sequence (P0AD68 1-577): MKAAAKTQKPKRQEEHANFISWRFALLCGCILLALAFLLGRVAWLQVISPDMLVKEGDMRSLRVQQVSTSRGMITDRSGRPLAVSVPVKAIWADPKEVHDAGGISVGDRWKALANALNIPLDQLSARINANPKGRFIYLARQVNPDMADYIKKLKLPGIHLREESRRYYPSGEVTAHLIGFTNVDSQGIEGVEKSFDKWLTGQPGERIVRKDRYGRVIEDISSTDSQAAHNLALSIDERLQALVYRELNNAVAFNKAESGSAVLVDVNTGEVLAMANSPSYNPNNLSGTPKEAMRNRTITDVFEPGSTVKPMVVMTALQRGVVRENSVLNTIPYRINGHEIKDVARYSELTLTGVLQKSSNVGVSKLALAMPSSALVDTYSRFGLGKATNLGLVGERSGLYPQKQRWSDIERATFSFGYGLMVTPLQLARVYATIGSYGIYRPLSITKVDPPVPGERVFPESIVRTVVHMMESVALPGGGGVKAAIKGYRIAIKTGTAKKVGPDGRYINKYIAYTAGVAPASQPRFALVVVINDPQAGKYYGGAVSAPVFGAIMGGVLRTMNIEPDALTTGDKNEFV
Description: Example I: Experimental Method for Penicillin-Binding Protein Binding Assays with Bocillin-FL Via Fluorescence Polarization
To determine the ability of boronic acid-based test PBP inhibitors to bind Penicillin Binding Proteins (PBPs), Bocillin-FL (fluorescently-labeled penicillin V; ThermoFisher Scientific) was used in a fluorescence polarization (FP) competition binding assay to assess inhibitor binding to PBP2, PBP3 or PBP4 from Escherichia coli (K12), PBP3 from Pseudomonas aeruginosa (PA01), PBP1a, PBP2 and PBP3 from Acinetobacter baumannii (ATCC 19606), and PBP2 from Neiserria gonorrheae (FA19). PBPs were cloned and purified as described previously (E. coli PBPs, King, D. T, et al., ACS Infectious Diseases 2015, 1, 175-184; P. aeruginosa PBP3, Han et. al., PNAS 2010, 107 (51), 22002-22007; A. baumannii PBPs, Penwell et. al., Antimicrob. Agents Chemother. 2015, 59 (3), 1680-1689; N. gonorrhoeae PBP2, Singh et. al., J Biol. Chem. 2019, 294 (38), 14020-14032). To establish assay conditions for competition binding, enzyme titration/saturation binding experiments were initially performed. Bocillin-FL was prepared at 0.2 μM in a buffer comprised of 50 mM Hepes (pH 8.0), 300 mM NaCl and 5% (v/v) glycerol for reactions with E. coli, P. aeruginosa and N. gonorrhoeae PBPs, and 25 mM Tris (pH 8.0), 200 mM NaCl and 10% (v/v) glycerol and 0.005% (v/v) Tween 20 for reactions with A. baumannii PBPs. Saturation binding was performed by mixing 40 μl of PBP solutions ranging in concentrations from 0-24 μM with 40 μl of the 0.2 μM Bocillin-FL solution, in individual wells of a black 384-well microplate. FP was measured immediately upon mixing (Excitation, 490 nm; Emission, 520 nm; g-factor, 0.96), using a Cytation3 (BioTek) microplate reader and measured continuously for up to 120 minutes. […] The competition binding assay (80 μl final volume) was validated using beta-lactams and PBPs at final concentrations of: 1.5 μM, E. coli PBP3; 0.75 μM, P. aeruginosa PBP3; 1 μM A. baumannii PBP1a; 2.5 μM A. baumannii PBP2; 0.2 μM A. baumannii PBP3; and […] N. gonorrhoeae PBP2. Bocillin-FL was at 0.1 μM (0.05 μM with A. baumannii PBP1a) and beta-lactam concentrations ranged from 0-1000 μM. […] Bocillin-FL was added and the FP immediately measured for up to 60 minutes (90 minutes for E. coli PBP2). […] The beta-lactam potency was reported as the concentration of beta-lactam required to reduce the amount of PBP bound-Bocillin-FL by 50% (EC50). […] Binding assays for boronic acid PBP inhibitors were performed in an identical fashion for the respective PBPs

[14] = Escherichia coli, ATCC25922; MHB; E. coli ATCC 25922; read-out: Minimum Inhibitory Concentration, E. coli 25922
[15] = wild-type parent strain E. coli AG100

Row | SMILES | MIC [1] [µg/mL] | MIC [2] [µg/mL] | MIC [3] [µg/mL] | MIC ([4]; hyper-permeable E. coli 901C) [µg/mL] | MIC [5, 14] [µg/mL] | MIC [6] [µg/mL] | MIC [7] [µg/mL] | MIC [8] [µg/mL] | MIC [9] [µg/mL] | MIC ([10]; hyper-permeable E. coli D22) [µg/mL] | MIC [11, 15] [µg/mL] | MIC [12] [µg/mL] | MIC ([4]; E. coli 901C (hyper-permeable)) [µg/mL] | MIC ([5]; Escherichia coli, ATCC25922; E. coli ATCC 25922; MHB; read-out: Minimum Inhibitory Concentration, E. coli 25922) [µg/mL] | MIC ([10]; E. coli D22 (hyper-permeable)) [µg/mL] | MIC ([11]; E. coli AG100 (wild-type parent)) [µg/mL] | EC50 [13] [µM]
1 | C[C@H]1CN(CCF)C(=O)C(=O)N1C(=O)NC(C(=O)N[C@H]1Cc2cccc(C(=O)O)c2OB1O)c1cc(F)c(O)c(F)c1F (stereo partly shown) [Example 248] | > 128 | 0.5 to 1 (≈ 0.819 to 1.64 µM) | 8 to 16 (≈ 13.1 to 26.2 µM) | > 128 | 8 to 16 (≈ 13.1 to 26.2 µM) | 2 to 4 (≈ 3.28 to 6.55 µM) | > 128 | 32 to 64 (≈ 52.4 to 105 µM) | < 0.25 | 8 to 16 (≈ 13.1 to 26.2 µM) | 32 to 64 (≈ 52.4 to 105 µM) | 32 to 64 (≈ 52.4 to 105 µM) | – | – | – | – | –
2 | CCN1CCN(C(=O)NC(C(=O)N[C@H]2Cc3cccc(C(=O)O)c3OB2O)c2ccc(C(=O)O)c([N+](=O)[O-])c2)C(=O)C1=O (stereo partly drawn) [Example 220, (3R)-3-(2-(4-carboxy-3-nitrophenyl)-2-(4-ethyl-2,3-dioxopiperazine-1-carboxamido)acetamido)-2-hydroxy-3,4-dihydro-2H-benzo[e][1,2]oxaborinine-8-carboxylic acid] | > 128 | 2 to 4 (≈ 3.35 to 6.7 µM) | 8 to 16 (≈ 13.4 to 26.8 µM) | – | – | 0.5 to 1 (≈ 0.837 to 1.67 µM) | > 128 | 32 to 64 (≈ 53.6 to 107 µM) | < 0.25 | – | – | 32 to 64 (≈ 53.6 to 107 µM) | > 128 | > 128 | 32 to 64 (≈ 53.6 to 107 µM) | > 128 | –
3 | NCCN1CCCN(C(=O)N[C@H](C(=O)N[C@H]2Cc3cccc(C(=O)O)c3OB2O)c2c(F)cc(O)cc2F)C1=O (single isomer, unassigned) [Example 231] | > 128 | > 128 | > 128 | > 128 | > 128 | 8 to 16 (≈ 14.3 to 28.5 µM) | > 128 | > 128 | 32 to 64 (≈ 57 to 114 µM) | > 128 | > 128 | > 128 | – | – | – | – | 30 to 500
4 | NCCCN1CCN(C(=O)N[C@@H](C(=O)N[C@H]2Cc3cccc(C(=O)O)c3OB2O)c2cc(F)c(O)c(F)c2F)C(=O)C1=O (single isomer, unassigned) [Example 246] | > 128 | 8 to 16 (≈ 13.2 to 26.3 µM) | 8 to 16 (≈ 13.2 to 26.3 µM) | > 128 | 32 to 64 (≈ 52.7 to 105 µM) | 0.5 to 1 (≈ 0.823 to 1.65 µM) | > 128 | > 128 | 2 to 4 (≈ 3.29 to 6.59 µM) | 32 to 64 (≈ 52.7 to 105 µM) | > 128 | > 128 | – | – | – | – | –

From patent US20230114728A1 (Venatorx Pharmaceuticals, Inc., priority 2019, published 2023)
